Measurements reported in US10774071B2, “PD-1/PD-L1 inhibitors” (Gilead Sciences, Inc., priority 2018, dated 2020).

Key:
[1] = target: PD-1/PD-L1 (Homo sapiens (Human), UniProt Q9NZQ7); assay: PD-1/PD-L1 biochemical protein-protein interaction assay (ALPHA); type: binding; conditions: 0.3 nM His tagged PD-L1, 2.5 nM biotinylated Fc-PD-1, Table 3B, read-out: IC50 PD-L1-PD1
[2] = target: PD-L1 (Homo sapiens (Human), UniProt Q9NZQ7); assay: PD-L1/PD-L1 dimerization biochemical protein-protein interaction assay (ALPHA); type: binding; conditions: 0.5 nM His tagged PD-L1 and 0.5 nM FLAG tagged PD-L1, Table 4B, read-out: AC50 PDL1 Dimer 1 nM
Chain of PD-L1 (Q9NZQ7 19-238): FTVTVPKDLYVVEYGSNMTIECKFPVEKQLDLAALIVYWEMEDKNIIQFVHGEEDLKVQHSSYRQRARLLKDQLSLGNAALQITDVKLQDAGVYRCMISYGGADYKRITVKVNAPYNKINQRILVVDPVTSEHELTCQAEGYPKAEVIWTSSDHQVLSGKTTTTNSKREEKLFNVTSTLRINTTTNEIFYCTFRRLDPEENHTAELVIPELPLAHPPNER
Chain of PD-L1 (Q9NZQ7 19-238): as above

Chain of PD-1/PD-L1 (Q9NZQ7 19-238): as above

SMILES: COc1cc(O[C@H]2CCc3c(-c4cccc(-c5ccc(CNC[C@@H]6CCC(=O)N6)c(OC)n5)c4Cl)cccc32)c(Cl)cc1CN1CC[C@H](C(=O)O)C1 [B-167]
- IC50 [1]: 0.064 nM
- AC50 [2]: 51.6 nM

SMILES: COc1nc(-c2cccc(-c3cccc4c3CC[C@@H]4Oc3nc(OC)c(CNC4(C(=O)O)CC4)cc3C(F)(F)F)c2Cl)ccc1CN1CC2(C1)CN(C(C)=O)C2 [B-168]
- IC50 [1]: 0.064 nM
- AC50 [2]: 11.8 nM

SMILES: COc1nc(-c2cccc(-c3cccc4c3CC[C@@H]4Oc3nc(OC)c(CNC4(C(=O)O)CC4)cc3C(F)(F)F)c2Cl)ccc1CN1CC2(CNC(=O)C2)C1 [B-169]
- IC50 [1]: 0.064 nM
- AC50 [2]: 11.1 nM

SMILES: COc1nc(-c2cccc(-c3cccc4c3CC[C@@H]4Oc3nc(OC)c(CNC4(C(=O)O)CC4)cc3C(F)(F)F)c2Cl)ccc1CN1CC2(CCC(=O)N2)C1 [B-170]
- IC50 [1]: 0.064 nM
- AC50 [2]: 15.2 nM

SMILES: COc1nc(-c2cccc(-c3cccc4c3CC[C@@H]4Oc3nc(OC)c(CNC4(C(=O)O)CC4)cc3C(F)(F)F)c2Cl)ccc1CN1CC(C)(O)C1 [B-171]
- IC50 [1]: 0.064 nM
- AC50 [2]: 15.2 nM

SMILES: COc1nc(-c2cccc(-c3cccc4c3CC[C@@H]4Oc3nc(OC)c(CN(C)CC(=O)O)cc3Cl)c2Cl)ccc1CNC[C@@H]1CCC(=O)N1 [B-173]
- IC50 [1]: 0.064 nM
- AC50 [2]: 9.94 nM

SMILES: COc1nc(-c2cccc(-c3cccc4c3CC[C@@H]4Oc3nc(OC)c(CN4CC5CCC4C5C(=O)O)cc3Cl)c2Cl)ccc1CNC[C@@H]1CCC(=O)N1 (stereo partly drawn) [B-174]
- IC50 [1]: 0.064 nM
- AC50 [2]: 7.97 nM

SMILES: COc1nc(-c2cccc(-c3cccc4c3CC[C@@H]4Oc3nc(OC)c(CN4C[C@@H](C)[C@H]4C(=O)O)cc3Cl)c2Cl)ccc1CNC[C@@H]1CCC(=O)N1 [B-175]
- IC50 [1]: 0.064 nM
- AC50 [2]: 14.3 nM

SMILES: COc1nc(-c2cccc(-c3cccc4c3CC[C@@H]4Oc3nc(OC)c(CN4CCCCC(C(=O)O)C4)cc3Cl)c2Cl)ccc1CNC[C@@H]1CCC(=O)N1 (stereo partly drawn) [B-176]
- IC50 [1]: 0.064 nM
- AC50 [2]: 52.6 nM

SMILES: COc1nc(-c2cccc(-c3cccc4c3CC[C@@H]4Oc3nc(OC)c(CN4CCCC(C(=O)O)CC4)cc3Cl)c2Cl)ccc1CNC[C@@H]1CCC(=O)N1 (stereo partly drawn) [B-177]
- IC50 [1]: 0.064 nM
- AC50 [2]: 17.9 nM

SMILES: COc1nc(-c2cccc(-c3cccc4c3CC[C@@H]4Oc3nc(OC)c(CN4CCC(C)(C(=O)O)CC4)cc3Cl)c2Cl)ccc1CNC[C@@H]1CCC(=O)N1 [B-178]
- IC50 [1]: 0.064 nM
- AC50 [2]: 21.5 nM

SMILES: CCN(CC(=O)O)Cc1cc(C(F)(F)F)c(O[C@H]2CCc3c(-c4cccc(-c5cc(F)c(CNC[C@@H]6CCC(=O)N6)c(OC)c5)c4Cl)cccc32)nc1OC [B-179]
- IC50 [1]: 0.064 nM
- AC50 [2]: 3.64 nM

SMILES: COc1nc(-c2cccc(-c3cccc4c3CC[C@@H]4Oc3nc(OC)c(CN4C[C@H]5C[C@]4(C(=O)O)[C@H]5C)cc3Cl)c2Cl)ccc1CNC[C@@H]1CCC(=O)N1 [B-180]
- IC50 [1]: 0.064 nM
- AC50 [2]: 12.5 nM

SMILES: COc1nc(-c2cccc(-c3cccc4c3CC[C@@H]4Oc3nc(OC)c(CN4CC5CCCC4(C(=O)O)C5)cc3Cl)c2Cl)ccc1CNC[C@@H]1CCC(=O)N1 (stereo partly drawn) [B-181]
- IC50 [1]: 0.064 nM
- AC50 [2]: 18.9 nM

SMILES: COc1nc(-c2cccc(-c3cccc4c3CC[C@@H]4Oc3nc(OC)c(CN4C[C@H]5[C@@H]([C@H]4C(=O)O)C5(C)C)cc3Cl)c2Cl)ccc1CNC[C@@H]1CCC(=O)N1 [B-182]
- IC50 [1]: 0.064 nM
- AC50 [2]: 31.1 nM

SMILES: COc1nc(-c2cccc(-c3cccc4c3CC[C@@H]4Oc3nc(OC)c(CN4CCC(C)(C)[C@H]4C(=O)O)cc3Cl)c2Cl)ccc1CNC[C@@H]1CCC(=O)N1 [B-183]
- IC50 [1]: 0.064 nM
- AC50 [2]: 25.1 nM

SMILES: COc1nc(-c2cccc(-c3cccc4c3CC[C@@H]4Oc3nc(OC)c(CN4CC5CC(C(=O)O)C4C5)cc3Cl)c2Cl)ccc1CNC[C@@H]1CCC(=O)N1 (stereo partly drawn) [B-184]
- IC50 [1]: 0.064 nM
- AC50 [2]: 19.8 nM

SMILES: COc1nc(-c2cccc(-c3cccc4c3CC[C@@H]4Oc3nc(OC)c(CN4C[C@H](C)C[C@H]4C(=O)O)cc3Cl)c2Cl)ccc1CNC[C@@H]1CCC(=O)N1 [B-185]
- IC50 [1]: 0.064 nM
- AC50 [2]: 10.9 nM

SMILES: CCC1C(C(=O)O)CCN1Cc1cc(Cl)c(O[C@H]2CCc3c(-c4cccc(-c5ccc(CNC[C@@H]6CCC(=O)N6)c(OC)n5)c4Cl)cccc32)nc1OC (stereo partly drawn) [B-186]
- IC50 [1]: 0.064 nM
- AC50 [2]: 19.7 nM

SMILES: COc1cc(-c2cccc(-c3cccc4c3CC[C@@H]4Oc3nc(OC)c(CN(C)CC(=O)O)cc3C(F)(F)F)c2Cl)cc(F)c1CNC[C@@H]1CCC(=O)N1 [B-187]
- IC50 [1]: 0.064 nM
- AC50 [2]: 2.86 nM

SMILES: COc1nc(O[C@H]2CCc3c(-c4cccc(-c5cc(F)c(CNC[C@@H]6CCC(=O)N6)c(OC)n5)c4Cl)cccc32)c(C(F)(F)F)cc1CN1CC[C@H](C(=O)O)C1 [B-188]
- IC50 [1]: 0.064 nM
- AC50 [2]: 12 nM

SMILES: COc1nc(O[C@H]2CCc3c(-c4cccc(-c5cc(F)c(CNC[C@@H]6CCC(=O)N6)c(OC)n5)c4Cl)cccc32)c(C(F)(F)F)cc1CNC1(C(=O)O)CC1 [B-189]
- IC50 [1]: 0.064 nM
- AC50 [2]: 9.85 nM

SMILES: COc1nc(O[C@H]2CCc3c(-c4cccc(-c5cc(F)c(CNC[C@@H]6CCC(=O)N6)c(OC)n5)c4Cl)cccc32)c(C(F)(F)F)cc1CN1CC2(C(=O)O)CCC1CC2 [B-190]
- IC50 [1]: 0.064 nM
- AC50 [2]: 8.98 nM

SMILES: COc1nc(O[C@H]2CCc3c(-c4cccc(-c5cc(F)c(CNC[C@@H]6CCC(=O)N6)c(OC)n5)c4Cl)cccc32)c(C(F)(F)F)cc1CN1CC[C@@H](C(=O)O)C1 [B-191]
- IC50 [1]: 0.064 nM
- AC50 [2]: 12.3 nM

SMILES: COc1cc(-c2cccc(-c3cccc4c3CC[C@@H]4Oc3nc(OC)c(CNC(C)(C)CC(=O)O)cc3C(F)(F)F)c2Cl)cc(F)c1CNC[C@@H]1CCC(=O)N1 [B-192]
- IC50 [1]: 0.064 nM
- AC50 [2]: 6.8 nM

SMILES: COc1cc(-c2cccc(-c3cccc4c3CC[C@@H]4Oc3nc(OC)c(CNC4(C(=O)O)CC4)cc3C(F)(F)F)c2Cl)cc(F)c1CNC[C@@H]1CCC(=O)N1 [B-193]
- IC50 [1]: 0.064 nM
- AC50 [2]: 3.76 nM

SMILES: COc1cc(-c2cccc(-c3cccc4c3CC[C@@H]4Oc3nc(OC)c(CN4CC5(C(=O)O)CCC4CC5)cc3C(F)(F)F)c2Cl)cc(F)c1CNC[C@@H]1CCC(=O)N1 [B-194]
- IC50 [1]: 0.064 nM
- AC50 [2]: 4.54 nM

SMILES: COc1cc(-c2cccc(-c3cccc4c3CC[C@@H]4Oc3nc(OC)c(CN4CC[C@@H](C(=O)O)C4)cc3C(F)(F)F)c2Cl)cc(F)c1CNC[C@@H]1CCC(=O)N1 [B-195]
- IC50 [1]: 0.064 nM
- AC50 [2]: 5.79 nM

SMILES: COc1nc(-c2cccc(-c3cccc4c3CC[C@@H]4Oc3nc(OC)c(CNC(C)(C)CC(=O)O)cc3C(F)(F)F)c2Cl)ccc1CNC[C@@H]1CCC(=O)N1 [B-196]
- IC50 [1]: 0.064 nM
- AC50 [2]: 6.31 nM

SMILES: COc1nc(-c2cccc(-c3cccc4c3CC[C@@H]4Oc3nc(OC)c(CNC(C)(C)CC(=O)O)cc3Cl)c2Cl)ccc1CNC[C@@H]1CCC(=O)N1 [B-197]
- IC50 [1]: 0.064 nM
- AC50 [2]: 12.5 nM

SMILES: COc1nc(-c2cccc(-c3cccc4c3CC[C@@H]4Oc3nc(OC)c(CN4C[C@H]5C[C@@]5(C(=O)O)C4)cc3C(F)(F)F)c2Cl)ccc1CNC[C@@H]1CCC(=O)N1 [B-198]
- IC50 [1]: 0.064 nM
- AC50 [2]: 15.3 nM

SMILES: COc1nc(-c2cccc(-c3cccc4c3CC[C@@H]4Oc3nc(OC)c(CN4C[C@@H]5C[C@]5(C(=O)O)C4)cc3C(F)(F)F)c2Cl)ccc1CNC[C@@H]1CCC(=O)N1 [B-199]
- IC50 [1]: 0.064 nM
- AC50 [2]: 17.5 nM

SMILES: COc1nc(-c2cccc(-c3cccc4c3CC[C@@H]4Oc3nc(OC4CC4)c(CN4CC[C@@H](C(=O)O)C4)cc3Cl)c2Cl)ccc1CNC[C@@H]1CCC(=O)N1 [B-200]
- IC50 [1]: 0.064 nM
- AC50 [2]: 20.1 nM

SMILES: COc1nc(-c2cccc(-c3cccc4c3CC[C@@H]4Oc3nc(OC4CC4)c(CNC4(C(=O)O)CC4)cc3Cl)c2Cl)ccc1CNC[C@@H]1CCC(=O)N1 [B-201]
- IC50 [1]: 0.064 nM
- AC50 [2]: 24.4 nM

SMILES: COc1nc(-c2cccc(-c3cccc4c3CC[C@@H]4Oc3nc(OC)c(CN4CC[C@@](C)(C(=O)O)C4)cc3C(F)(F)F)c2Cl)ccc1CNC[C@@H]1CC(O)C(=O)N1 (stereo partly drawn) [B-202]
- IC50 [1]: 0.064 nM
- AC50 [2]: 3.43 nM

SMILES: COc1nc(-c2cccc(-c3cccc4c3CC[C@@H]4Oc3nc(OC)c(CN4CC5(C(=O)O)CCC4CC5)cc3C(F)(F)F)c2Cl)ccc1CNC[C@@H]1CC(O)C(=O)N1 (stereo partly drawn) [B-203]
- IC50 [1]: 0.064 nM
- AC50 [2]: 5.21 nM

SMILES: COc1nc(-c2cccc(-c3cccc4c3CC[C@@H]4Oc3nc(OC)c(CNC4(C(=O)O)CC4)cc3C(F)(F)F)c2Cl)ccc1CNC[C@@H]1CC(O)C(=O)N1 (stereo partly drawn) [B-204]
- IC50 [1]: 0.064 nM
- AC50 [2]: 9.7 nM

SMILES: COc1nc(-c2cccc(-c3cccc4c3CC[C@@H]4Oc3nc(OC)c(CNCC(=O)O)cc3C(F)(F)F)c2Cl)ccc1CN[C@]1(C)C[C@@](C)(O)C1 [B-205]
- IC50 [1]: 0.064 nM
- AC50 [2]: 7.55 nM

SMILES: COc1nc(-c2cccc(-c3cccc4c3CC[C@@H]4Oc3nc(OC)c(CNCC(=O)O)cc3C(F)(F)F)c2Cl)ccc1CNC[C@H]1C[C@](C)(O)C1 [B-206]
- IC50 [1]: 0.064 nM
- AC50 [2]: 7.77 nM

SMILES: COc1nc(-c2cccc(-c3cccc4c3CC[C@@H]4Oc3nc(OC)c(CNC4(C(=O)O)CC4)cc3C(F)(F)F)c2Cl)ccc1CNC[C@H]1C[C@](C)(O)C1 [B-207]
- IC50 [1]: 0.064 nM
- AC50 [2]: 11.9 nM

SMILES: COc1nc(-c2cccc(-c3cccc4c3CC[C@@H]4Oc3nc(OC)c(CN4CC[C@@](C)(C(=O)O)C4)cc3C(F)(F)F)c2Cl)ccc1CNC[C@H]1C[C@](C)(O)C1 [B-208]
- IC50 [1]: 0.064 nM
- AC50 [2]: 23.5 nM

SMILES: COc1nc(-c2cccc(-c3cccc4c3CC[C@@H]4Oc3nc(OC)c(CN4CC5(C(=O)O)CCC4CC5)cc3C(F)(F)F)c2Cl)ccc1CNC[C@H]1C[C@](C)(O)C1 [B-209]
- IC50 [1]: 0.064 nM
- AC50 [2]: 11.7 nM

SMILES: COc1nc(-c2cccc(-c3cccc4c3CC[C@@H]4Oc3nc(OC)c(CN(C)CC(=O)O)cc3C(F)(F)F)c2Cl)ccc1CN[C@H]1C[C@](C)(O)C1 [B-210]
- IC50 [1]: 0.064 nM
- AC50 [2]: 23.7 nM

SMILES: CC[C@H](NCc1cc(C(F)(F)F)c(O[C@H]2CCc3c(-c4cccc(-c5ccc(CN[C@H]6C[C@](C)(O)C6)c(OC)n5)c4Cl)cccc32)nc1OC)C(=O)O [B-211]
- IC50 [1]: 0.064 nM
- AC50 [2]: 9.21 nM

SMILES: COc1nc(-c2cccc(-c3cccc4c3CC[C@@H]4Oc3nc(OC)c(CN[C@H](C(=O)O)C(C)C)cc3C(F)(F)F)c2Cl)ccc1CN[C@H]1C[C@](C)(O)C1 [B-212]
- IC50 [1]: 0.064 nM
- AC50 [2]: 17.5 nM
